Data reported in patent US20130095059A1, “INHALED NO DONOR KMUPS DERIVATIVE PREVENTING ALLERGIC PULMONARY VASCULAR AND BRONCHIAL INFLAMMATION VIA SUPPRESSED CYTOKINES, INOS AND INFLAMMATORY CELL COUNTS IN ASTHMA MODEL” (priority 2007, published 2013).

What was measured:
eNOS = test: Short term nebulization, eNOS expression in lung tissues; format: in vivo, BALB/c mice; conditions: nebulization 1.0˜2.5 mM, 30 mins, without ovalbumine sensitization
Experimental: […] Aerosols were generated by ultrasonic nebulizer from day 21 to 27. Mice were sacrificed on day 28, (Cataldo D D, et al., 2002). Three different experiments were performed on cohorts of 7˜14 mice per experimental condition.
(§1) The lung tissues were homogenized, washed with PBS and incubated in lysis buffer in addition to a protease inhibitor cocktail (Sigma, St. Louis, Mo.) to obtain extracts of lung proteins. A Western blot analysis was performed as described previously (Wu B N, et al., 2006). The samples were loaded to 10% SDS-PAGE gels and were separated at 120 V for 90 min. The blots were incubated with anti-eNOS antibody diluted at a ratio of 1:500, anti-sGCα1 antibody diluted at a ratio of 1:2000, anti-PKG antibody diluted at a ratio of 1:500, anti-VCAM-1 antibody diluted at a ratio of 1:500, anti-ICAM-1 antibody diluted at a ratio of 1:500, and anti-MMP-9 antibody diluted at a ratio of 1:600 overnight at 4° C. The membranes were stripped and re-blotted with anti-actin antibody (Sigma, St. Louis, Mo.) to verify the equal loading of protein in each lane.

sGCα1 = test: Ovalbumine model, sGCα1 expression; format: in vivo, BALB/c mice; conditions: 28-day experiment; nebulization
Experimental: (§2) In this long-term experiment, 6-8 week old BALB/c female mice were sensitized on days 1 and 8 by intra-peritoneal injection (i.p.) of ovalbumine (10 μg) (Sigma-Aldrich, Schnelldorf, Germany) adsorbed to 2 mg aluminum hydroxide (AlumInject; Perbio, Erembodegem, Belgium). Mice were divided into three groups. In Group 1, a control group was only exposed to saline nebulization by aerosol. The other 2 groups were subjected to ovalbumine (1%) nebulization. Before each challenge with ovalbumine, mice were either exposed to saline nebulization (Group 2) or KMUP-1 nebulization (5 mM) for 30 min by aerosol (Group 3).
as §1, with “The membranes were stripped and re-blotted with anti-actin antibody (Sigma, St. Louis, Mo.) to verify the equal loading of protein in each lane.” left out

NOx = test: Ovalbumine model, NO metabolites (NOx) in BALF; format: in vivo, BALB/c mice; conditions: 24 hrs after last challenge; basal 65.4±8.2, ovalbumine 162.8±15.7
Experimental: as §2
The remaining BALF was centrifuged (900 g, 1200 rpm, 10 min) and the supernatant frozen (−80° C.) until determination of nitrite and nitrate by the Griess reaction. BALF (100 μL) was incubated (37° C.) for 30 min with N-2-hydroxyethylpiperazine-N′-ethane sulphonic acid buffer (HEPES) (50 mM, pH 7.4), flavin adenine dinucleotide (5 μM), nicotinamide adenine dinucleotide phosphate (0.1 mM), distilled water (290 μl), and nitrate reductase (0.2 U/ml) for the conversion of nitrate into nitrite. […] The samples were then incubated (25° C., 10 min) with Griess reagent [N-(1-naphthyl)-ethylenediamine: 0.2% (w/v), sulphanilamide: 2% (w/v), solubilized in double-distilled water: 95% and phosphoric acid: 5% (v/v)] and the absorbance measured at 540 nm. […]

pulmonary artery rings = test: Isometric force of 5-HT-constricted pulmonary artery rings; set-up: species or system Wistar rats
Experimental: Wistar rats were euthanized with an overdose of sodium pentobarbital (60 mg/kg, i.p.) before open-chest surgery. During surgery, a thoracic retractor was used to help isolate the pulmonary artery. […] The pulmonary artery ring preparations were stretched to a basal tension of 1 g and allowed to equilibrate for 60-90 min. After equilibration, pulmonary artery rings were constricted with 5-HT (10 μM) to prime the tissues and check the functionality of the endothelium (at least 80% relaxation in response to acetylcholine 1 μM). […] The effect of KMUP-1 on NOS and 5-HT was also studied in vessels pre-incubated with the NOS inhibitor L-NAME (100 μM) 20 min before 5-HT administration. The percentage of relaxation was estimated using the following equation: relaxation (%)=(maximal contraction−relaxation level)/(maximal contraction-basal level)×100. Data was obtained from serotonin-induced maximal contractile responses in pulmonary artery.

IL-13 = test: Ovalbumine model, plasma IL-13 (ELISA); format: in vivo, mice; conditions: mice sensitized and challenged by ovalbumine
Experimental: as §2

Cn1c(=O)c2c(ncn2CCN2CCN(c3ccccc3Cl)CC2)n(C)c1=O [KMUP-1, 7-[2-[4-(2-chlorophenyl)piperazinyl]ethyl]-1,3-dimethylxanthine]
eNOS expression in mice lung tissues (eNOS): dose-dependently increased
decreased sGCα1 expression by ovalbumine sensitization (sGCα1): significantly reduced
levels of NOx (nitrate+nitrite) in BALF (NOx): 86.3 ± 17.3 µM
5-HT (10 μM) contractile response in pulmonary artery (pulmonary artery rings; 0.1-100 μM): inhibited
maximum response of pulmonary artery to 5-HT (pulmonary artery rings; 10-100 μM, in the presence of L-NAME (100 μM)): reduced the maximum response
IL-13 levels in the plasma (IL-13): inhibited
